The target in assay [1] is T1, MARK4 (Homo sapiens, UniProt Q96L34).
T1 construct: made in house
T1 sequence (Q96L34 1-752): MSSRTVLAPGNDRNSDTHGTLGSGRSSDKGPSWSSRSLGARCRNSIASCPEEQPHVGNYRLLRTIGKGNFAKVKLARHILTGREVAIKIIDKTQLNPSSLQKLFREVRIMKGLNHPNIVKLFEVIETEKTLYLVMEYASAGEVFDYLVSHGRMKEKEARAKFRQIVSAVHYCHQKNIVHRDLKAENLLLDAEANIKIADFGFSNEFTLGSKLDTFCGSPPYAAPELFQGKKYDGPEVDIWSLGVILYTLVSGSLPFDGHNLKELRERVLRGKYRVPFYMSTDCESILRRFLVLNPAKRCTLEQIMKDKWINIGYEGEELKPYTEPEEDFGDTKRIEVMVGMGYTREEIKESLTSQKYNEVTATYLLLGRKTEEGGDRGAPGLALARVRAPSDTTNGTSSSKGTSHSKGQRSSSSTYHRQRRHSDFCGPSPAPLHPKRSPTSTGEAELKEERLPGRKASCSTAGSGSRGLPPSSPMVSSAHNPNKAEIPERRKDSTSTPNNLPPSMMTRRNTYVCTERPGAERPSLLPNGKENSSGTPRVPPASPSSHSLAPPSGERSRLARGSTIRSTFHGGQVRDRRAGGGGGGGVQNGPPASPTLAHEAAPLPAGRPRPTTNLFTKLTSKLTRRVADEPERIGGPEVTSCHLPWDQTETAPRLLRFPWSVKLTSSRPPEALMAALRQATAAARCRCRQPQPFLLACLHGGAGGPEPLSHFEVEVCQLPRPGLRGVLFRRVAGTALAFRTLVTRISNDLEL
The assay can be described thus: Fluorescence quenching binding study of MARK4 with DP and RT. The note with it: for Kq (quenching rate constant): Kq=Ksv/τ0, τ0 2.7 × 10^−9 s; for Ksv (Stern−Volmer constant): MARK4 4 μM; for n (number of the binding site) / Kd: modified Stern−Volmer plot; for ΔG (change in Gibbs free energy): van't Hoff equation; for mode of fluorescence quenching of the MARK4 complex: from temperature dependency of Ksv and from Kq; for ΔH (change in enthalpy) / ΔS (change in entropy): van't Hoff plot over 293, 296, 298 K, same value printed in each temperature row; for Kd: K (binding constant). The text has this: The observed fluorescence intensities were corrected for the inner filter effect. Obtained data were fitted into the Stern−Volmer and modified Stern−Volmer equations to estimate Stern-Volmer constant (Ksv), binding constant (Ka), and the number of binding sites (n).
Equation (1) (van’t Hoff equation) was used to find the thermodynamic parameters such as changes in enthalpy, entropy, and Gibbs free energy associated with the reaction. (1) ΔG=−RTLnK=ΔH−TΔS
K is the obtained binding constant, ΔH is the associated enthalpy change and ΔG is the associated free Gibbs energy change. ΔS denotes the associated entropy change with reaction, and R is the universal gas constant.
The slope of the van’t Hoff plot (LnK on Y-axis against 1/T on the X-axis) gives the value of −ΔH/R, and the intercept giving the value of ΔS/R.
The intrinsic fluorescence of protein due to tryptophan is often used to get an insight into the ligand binding to the protein because binding often leads to changes in the surrounding environment around tryptophan residues which corresponds to observed changes in fluorescence. The recombinant MARK4 was expressed and purified to carry out all binding studies.
Ksv was obtained from the slope of this plot at a fixed intercept after linear regression using the Stern−Volmer equation (Equation (2)). (2) F0/F=1+Ksv[C]
The SV plot of combined quenching (both static and dynamic) is characteristically an upward curvature while the linear Stern−Volmer plot depicts that only one mode of quenching was operative. […] The linear plot and upward curvature are not enough to define the quenching type. […] Equation (3) uses Ksv and τo (average integral fluorescence lifetime of tryptophan) (2.7 × 10^−9 s) to find biomolecular quenching rate constant (Kq) (3) Kq=Ksv/τ0
To get insights into other binding parameters, Equation (4) was used. This equation gives binding constant (K) and the number of binding sites (n). (4) logF0−F/F=logK+nlog[C]

For assay [2], the target named is T1, MARK4. The assay can be described thus: Isothermal titration calorimetry. It is filed as binding. The note with it: ITC, 25 °C, 20 µM MARK4; for Kd: 100 µM DP or 200 µM RT in syringe. How it is done: Isothermal titration calorimetry (ITC) measurements were carried out on a VP-ITC microcalorimeter (MicroCal, Inc, GE, MicroCal, Northampton, MA, USA) at 25 °C. All the solutions were degassed in thermovac for 20 min to remove air bubbles. For sample preparation, recombinant MARK4 was extensively dialyzed in 20 mM Tris buffer, pH 8.5. […] We used standard protocol to run the ITC in which the first injection was a false injection of 2 μL followed by injections of 10 μL of the ligands at a span of 260 s intervals into the sample cell. The stirring rate was maintained at 320 rpm. The obtained titration data were analyzed by Origin 8.0 software to estimate thermodynamic parameters such as stoichiometry of binding (n), enthalpy change (ΔH), an association constant (Ka).

The target of assay [3] is T1, MARK4. The assay can be described thus: ATPase inhibition assay (malachite green, BIOMOL reagent). It is filed as biochemical. The note with it: MARK4 4 μM, ligand 0–20 μM, pre-incubated 60 min, 200 μM ATP, 25 °C; AAT Bioquest calculator.
Method: The activity of MARK4 was measured using standard malachite green (BIOMOL® reagent, Enzo Life Sciences) microtitre-plate assay using previously-published protocols [17, 40].
Initially, MARK4 (4 μM) was pre-incubated with increasing concentrations of ligands at room temperature for 60 min in a 96-well plate. Subsequently, 200 μM of freshly-prepared ATP was mixed to the reaction mixture and incubated for 15–20 min at 25 °C. At the end of this time, BIOMOL® reagent was added and kept for 15–20 min. The intensity of color was spectrophotometrically measured at 620 nm.

Where a name gives a salt, the structure may show the parent alone.

What is called IC50 is the concentration that inhibits the measured activity by half.

Turning to `COc1cc2c(cc1OC)C(=O)C(CC1CCN(Cc3ccccc3)CC1)C2` (stereo not drawn) [DP, Donepezil], in assay [1] (293 K), the TΔS was -126.79 kcal/mol, the “Kq (quenching rate constant)” value is recorded as 6.85 10^14 M^−1 s^−1, the “n (number of the binding site)” value was determined as 1.66 and the “ΔG (change in Gibbs free energy)” value was -10.70 kcal/mol. In addition, the “Ksv (Stern−Volmer constant)” value in assay [1] (293 K, DP 0−200 nM) was 18.5 10^5 M^−1. Moreover, in assay [1] (296 K), the TΔS is -128.09 kcal/mol, the “Kq (quenching rate constant)” value is 5.81 10^14 M^−1 s^−1, the “n (number of the binding site)” value stood at 1.311 and the “ΔG (change in Gibbs free energy)” value was -9.40 kcal/mol. The “Ksv (Stern−Volmer constant)” value in assay [1] (296 K, DP 0−200 nM) is 15.7 10^5 M^−1. In addition, in assay [1] (298 K), the TΔS was -128.95 kcal/mol, the “Kq (quenching rate constant)” value is given as 5.03 10^14 M^−1 s^−1 and the “n (number of the binding site)” value was 0.1. Besides, the “Ksv (Stern−Volmer constant)” value in assay [1] (298 K, DP 0−200 nM) is 13.6 10^5 M^−1. In assay [1], the “mode of fluorescence quenching of the MARK4 complex” value is “static mode”, the “ΔH (change in enthalpy)” value is -137.5 kcal/mol and the “ΔS (change in entropy)” value was −432.749 cal mol^−1K^−1. In assay [2], the “∆S1” value is given as 51.2 cal/mol/deg, the “∆S2” value is listed as -207 cal/mol/deg, the “∆S3” value was 368 cal/mol/deg and the “∆S4” value was -327 cal/mol/deg.

For `CCN(C)C(=O)Oc1cccc([C@H](C)N(C)C)c1` [RT, rivastigmine tartrate], the TΔS in assay [1] (293 K) is -133.48 kcal/mol; in assay [1] (296 K) it was -135.76 kcal/mol; in assay [1] (298 K), -138.04 kcal/mol. The “Kq (quenching rate constant)” value was 1.25 10^13 M^−1 s^−1 in assay [1] (293 K), 1.44 10^13 M^−1 s^−1 in assay [1] (296 K) and 2.14 10^13 M^−1 s^−1 in assay [1] (298 K). Moreover, the “Ksv (Stern−Volmer constant)” value in assay [1] (293 K, RT 0−9 µM) is reported as 3.4 10^4 M^−1; in assay [1] (296 K, RT 0−9 µM), 3.9 10^4 M^−1; in assay [1] (298 K, RT 0−9 µM) it was 5.8 10^4 M^−1. For the same molecule, the “n (number of the binding site)” value in assay [1] (293 K) worked out at 1.66; in assay [1] (296 K) it was 1.311; in assay [1] (298 K), 0.94. Besides, the “ΔG (change in Gibbs free energy)” value in assay [1] (293 K) is -10.74 kcal/mol; in assay [1] (296 K) it was -8.46 kcal/mol; in assay [1] (298 K), -6.18 kcal/mol. Further, the Kd in assay [1] (293 K) is 0.00952 µM; in assay [1] (296 K) it was 0.625 µM; in assay [1] (298 K), 50 µM; in assay [2] (read-out: Ka1 (association constant) (converted)), 9.8 µM; in assay [2] (read-out: Ka2 (association constant) (converted)) it was 8.55 µM; in assay [2] (read-out: Ka3 (association constant) (converted)), 5 µM. Moreover, in assay [1], the “mode of fluorescence quenching of the MARK4 complex” value was “combination of static and dynamic modes of quenching”. The “ΔH (change in enthalpy)” value in assay [1] is -144.23 kcal/mol. Further, in assay [1], the “ΔS (change in entropy)” value is given as −455.78 cal mol^−1K^−1. For the same molecule, the “∆S1” value in assay [2] is on record as 31.1 cal/mol/deg. The “∆S2” value in assay [2] was -700 cal/mol/deg. Further, the IC50 in assay [3] was 6.74 µM.

Source of the values: article PMC7277793 (Biomolecules, 2020).
